# Measurements taken from patent US10633389B2, “CARM1 inhibitors and uses thereof” (Epizyme, Inc., priority 2013, dated 2020).
# Tested on: asymmetric di-methyl PABP1 in RKO cells
# Assay: RKO methylation assay, In Cell Western (ICW) for asymmetric di-methyl PABP1
# Format: cell-based
# Conditions: Homo sapiens, RKO, Cellular potencies, ICW PABP1me2a
# Outline: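 RKO cells treated with compound for 48 h at 37 °C, then fixed, permeabilized and immunostained for asymmetric di-methyl PABP1, with DRAQ5 as DNA stain. Infrared 700/800 nm signal ratio normalized to DMSO and 20 μM reference-compound controls; IC50 from triplicate wells.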
row,SMILES,IC50 [µM]
1,CNCC(O)COc1cccc(-c2nc(-c3cccc4ncccc34)cc(N(C)C3CCOCC3)n2)c1 (stereo not shown) [Example 616-1a],10 to 20
2,CCOC(=O)N1CCOC[C@@H]1CNc1nc(-c2cccc(OCC(O)CNC)c2)nc(-c2c(C)noc2C)c1C (stereo partly shown) [Example 206-1a],< 5
3,CNCC(O)COc1cc(Cl)cc(-c2nc(-c3cn[nH]c3)c(C)c(N(C)C3CCOCC3)n2)c1 (stereo not shown) [Example 617-1a],10 to 20
4,CNC[C@@H](O)COc1ccc(Cl)c(-c2nc(N[C@H]3CN(C(=O)OC)C[C@@H]3F)c(C)c(-c3c(C)noc3C)n2)c1 [Example 202-3],< 5
5,CNCC(O)COc1cc(Cl)cc(-c2nc(N[C@H]3CCOC3)cc(-c3c(C)noc3C)n2)c1 (stereo partly shown) [Example 12-1a],10 to 20
6,CNCC(O)COc1cccc(-c2nc(NCC3CCOCC3)c(F)c(-c3c(C)noc3C)n2)c1 (stereo not shown) [Example 143-1a],< 5
7,CNC[C@@H](O)COc1ccc(Cl)c(-c2nc(-c3c(C)noc3C)c(C)c(C3CCOCC3)n2)c1 [Example 268-3],< 5
8,CNCC(O)COc1cccc(-c2nc(NC3CCOC3)c(C)c(N3CCNC[C@H]3C)n2)c1 (stereo partly shown) [Example 352-1a],10 to 20
9,CNCC(O)COc1cccc(-c2nc(NC3CCCN(C(=O)OC)C3)c(C)c(-c3c(C)noc3C)n2)c1 (stereo not shown) [Example 201-1a],< 5
10,CNCC(O)COc1cccc(-c2nc(N[C@@H]3CCOC3)c(C)c(N3CCN(C4CC4)CC3)n2)c1 (stereo partly shown) [Example 436-1a],< 5
11,CNCC(O)COc1ccc(C)c(-c2nc(NC3CCOC(C)C3)c(C)c(-c3c(C)noc3C)n2)c1 (stereo not shown) [Example 124-3],< 5
12,CNCC(O)COc1cccc(-c2nc(NC3CCOCC3C)c(C)c(-c3c(C)noc3C)n2)c1 (stereo not shown) [Example 269-1a],< 5
13,CNC[C@@H](O)COc1ccc(Cl)c(-c2nc(N[C@@H]3CCO[C@@H](C)C3)c(C)c(-c3c(C)noc3C)n2)c1 [Example 257-3],< 5
14,CNCC(O)COc1cccc(-c2nc(N[C@@H]3CCN(C(=O)OC(C)(C)C)C[C@@H]3F)c(C)c(-c3c(C)noc3C)n2)c1 (stereo partly shown) [Example 227-1a],< 5
15,CNCC(O)COc1cc(Cl)cc(-c2nc(C(=O)NCC3CCOCC3)cc(N(C)C3CCOCC3)n2)c1 (stereo not shown) [Example 508-1a],< 5
16,CNC[C@@H](O)COc1ccc(Cl)c(-c2nc(-c3c(C)noc3C)c(C)c(N3CC4(CCN(C5CC5)CC4)C3)n2)c1 [Example 108-3],< 5
17,CNC[C@@H](O)COc1ccc(F)c(-c2nc(N[C@H]3CCN(C(=O)OC)C[C@H]3F)c(C)c(-c3c(C)noc3C)n2)c1 [Example 64-3],< 5
18,CNC[C@@H](O)COc1ccc(Cl)c(-c2nc(-c3c(C)noc3C)c(C)c(N3CC4(CCN(C5CC5)C4)C3)n2)c1 [Example 176-3],< 5
19,CNCC(O)COc1cccc(-c2nc(N3CCC4(CCO4)CC3)cc(N(C)C3CCOCC3)n2)c1 (stereo not shown) [Example 579-1a],10 to 20
20,CNCC(O)COc1cccc(-c2nc(-c3cnc(CO)n3C)cc(N(C)C3CCOCC3)n2)c1 (stereo not shown) [Example 572-1a],10 to 20
21,CNCC(O)COc1cccc(-c2nc(N[C@@H]3CCOC3)c(C)c(N(C)C3CCN(C)CC3)n2)c1 (stereo partly shown) [Example 379-1a],10 to 20
22,CCOC(=O)N1CCN(c2cc(-c3c(C)noc3C)nc(-c3cccc(OCC(O)CNC)c3)n2)CC1 (stereo not shown) [Example 28-1a],< 5
23,CNCC(O)COc1cccc(-c2nc(N[C@H]3CCOC3)c(C)c(N3CCOCC3)n2)c1 (stereo partly shown) [Example 26-1],10 to 20

row,SMILES,IC50 [µM]
1,CNCC(O)COc1cccc(-c2nc(N[C@@H]3CCOC3)c(C)c(-c3cn[nH]c3)n2)c1 (stereo partly shown) [Example 338-1a],10 to 20
2,CNCC(O)COc1cc(O)cc(-c2nc(NC3CCOCC3)c(C)c(-c3c(C)noc3C)n2)c1 (stereo not shown) [Example 76-1a],10 to 20
3,CNC[C@@H](O)COc1ccc(Cl)c(-c2nc(-c3c(C)noc3C)c(C)c(N3CCC4(CCOC4)C3)n2)c1 (stereo partly shown) [Example 288-3],< 5
4,CNCC(O)COc1cccc(-c2nc(-c3nc(C)cn3C)cc(N(C)C3CCOCC3)n2)c1 (stereo not shown) [Example 519-1a],5 to 10
5,CNC[C@H](O)COc1ccc(Cl)c(-c2nc(N[C@@H]3CCOC3)c(C)c(-c3c(C)noc3C)n2)c1 [Example 94-3],< 5
6,CNC[C@@H](O)COc1ccc(Cl)c(-c2nc(-c3c(C)noc3C)cc(N3Cc4cnn(C)c4C3)n2)c1 [Example 250-3],< 5
7,CNCC(O)COc1cccc(-c2nc(-c3c(C)noc3C)cc(N3CCN(S(C)(=O)=O)[C@H](C)C3)n2)c1 (stereo partly shown) [Example 147-1a],< 5
8,CNC[C@@H](O)COc1ccc(F)c(-c2nc(-c3c(C)noc3C)cc(N3Cc4cnn(C)c4C3)n2)c1 [Example 275-3],< 5
9,CNCC(O)COc1cccc(-c2nc(Nc3ncc(C)cn3)cc(N(C)C3CCOCC3)n2)c1 (stereo not shown) [Example 513-1a],5 to 10
10,CNCC(O)COc1cccc(-c2nc(NC3(C(F)(F)F)CC3)c(C)c(-c3c(C)noc3C)n2)c1 (stereo not shown) [Example 8-3],< 5
11,CNCC(O)COc1cccc(-c2nc(N[C@@H]3CCOC3)c(C)c(N3CCC3)n2)c1 (stereo partly shown) [Example 377-1a],10 to 20
12,CNCC(O)COc1cc(Cl)cc(-c2nc(-c3cnn(C)c3)cc(N(C)C3CCOCC3)n2)c1 (stereo not shown) [Example 610-1a],10 to 20
13,CNCC(O)COc1cccc(-c2nc(OCC3CCN(C(=O)OCc4ccccc4)CC3)c(C)c(-c3c(C)noc3C)n2)c1 (stereo not shown) [Example 259-1a],< 5
14,CNCC(O)COc1cccc(-c2nc(N[C@@H]3CCOC3)c(C)c(N3CC[C@@H](O)C3)n2)c1 (stereo partly shown) [Example 437-1a],5 to 10
15,CC[C@H]1CN(c2nc(-c3cccc(OCC(O)CNC)c3)nc(-c3c(C)noc3C)c2C)CCN1C1CC1 (stereo partly shown) [Example 178-1a],10 to 20
16,CNC[C@@H](O)COc1ccc(Cl)c(-c2nc(N[C@H]3CCN(C4CC4)[C@@H](C)C3)c(C)c(-c3c(C)noc3C)n2)c1 [Example 170-3],< 5
17,CNCC(O)COc1cccc(-c2nc(-c3sc(C)nc3C)cc(N(C)C3CCOCC3)n2)c1 (stereo not shown) [Example 569-1a],10 to 20
18,CNCC(O)COc1cc(Cl)cc(-c2nc(-c3ccc(N(C)C)nc3)c(C)c(N(C)C3CCOCC3)n2)c1 (stereo not shown) [Example 614-1a],10 to 20
19,CCOC(=O)N1CCC(Nc2nc(-c3cccc(OCC(O)CNC)c3)nc(-c3c(C)noc3C)c2C)C1 (stereo not shown) [Example 196-1a],< 5
20,CNCC(O)COc1cccc(-c2nc(NC3CCCN(CC(F)F)C3)c(C)c(-c3c(C)noc3C)n2)c1 (stereo not shown) [Example 203-1a],< 5
21,CNCC(O)COc1cc(Cl)cc(-c2nc(NC3CCN(C4CC4)CC3)c(C)c(-c3c(C)noc3C)n2)c1 (stereo not shown) [Example 22-3],< 5
22,CNCC(O)COc1cccc(-c2nc(N[C@@H]3CCOC3)c(C)c(N3CCC(c4cccnc4)C3)n2)c1 (stereo partly shown) [Example 461-1a],10 to 20
23,CNCC(O)COc1cccc(-c2nc(N[C@@H]3CCOC[C@@H]3OC)c(C)c(-c3c(C)noc3C)n2)c1 (stereo partly shown) [Example 220-1a],< 5

row,SMILES,IC50 [µM]
1,CNCC(O)COc1cccc(-c2nc(-c3c(C)noc3C)cc(N3CCN(CC(F)(F)F)[C@H](C)C3)n2)c1 (stereo partly shown) [Example 144-1a],< 5
2,CNC[C@@H](O)COc1ccc(Cl)c(-c2nc(N[C@@H]3CCN(C(=O)OC)[C@@H](C)C3)c(C)c(-c3c(C)noc3C)n2)c1 [Example 101-3],< 5
3,CNC[C@@H](O)COc1ccc(Cl)c(-c2nc(-c3c(C)noc3C)cc(N3CC4(CCOCC4)C3)n2)c1 [Example 249-3],< 5
4,CCOC(=O)N1CC[C@@H](Nc2nc(-c3cccc(OCC(O)CNC)c3)nc(-c3c(C)noc3C)c2C)[C@H](F)C1 (stereo partly shown) [Example 229-1a],< 5
5,CNC[C@@H](O)COc1ccc(Cl)c(-c2nc(-c3c(C)noc3C)c(C)c(N3CC4(CCOC4)C3)n2)c1 [Example 120-3],< 5
6,CNC[C@@H](O)COc1ccc(Cl)c(-c2nc(-c3c(C)noc3C)c(C)c(N3CC(F)C3)n2)c1 [Example 206-3],< 5
7,CNCC(O)COc1cccc(-c2nc(-c3c(C)noc3C)cc(N3CCNC(C(=O)O)C3)n2)c1 (stereo not shown) [Example 29-1a],10 to 20
8,CCOC(=O)N1CC(Nc2nc(-c3cccc(OCC(O)CNC)c3)nc(-c3c(C)noc3C)c2C)C1 (stereo not shown) [Example 238-1a],10 to 20
9,CNCC(O)COc1cccc(-c2nc(-c3c(C)noc3C)c(C)c(N3CCCC4(CN(C(=O)N(C)C)C4)C3)n2)c1 (stereo not shown) [Example 297-1a],5 to 10
10,CNC[C@@H](O)COc1ccc(Cl)c(-c2nc(NC3CC(F)(F)C3)c(C)c(-c3c(C)noc3C)n2)c1 [Example 189-3],< 5
11,CNCC(O)COc1cccc(-c2nc(C3=CCCC3)cc(N(C)C3CCOCC3)n2)c1 (stereo not shown) [Example 621-1a],10 to 20
12,CNCC(O)COc1cccc(-c2nc(-c3c(C)noc3C)c(F)c(N3CCN(C(=O)OC)CC3)n2)c1 (stereo not shown) [Example 97-1a],< 5
13,CNCC(O)COc1cccc(-c2nc(N[C@H]3CCOC[C@@H]3F)c(C)c(-c3c(C)noc3C)n2)c1 (stereo partly shown) [Example 279-1a],< 5
14,CC[C@@H]1CN(c2nc(-c3cccc(OCC(O)CNC)c3)nc(-c3c(C)noc3C)c2C)CCN1S(C)(=O)=O (stereo partly shown) [Example 153-1a],< 5
15,CNC[C@@H](O)COc1ccc(Cl)c(-c2nc(-c3c(C)noc3C)c(C)c(N3CCc4nc(C)sc4C3)n2)c1 [Example 141-3],< 5
16,CNCC(O)COc1cccc(-c2nc(NC3CCNC[C@H]3F)c(C)c(-c3c(C)noc3C)n2)c1 (stereo partly shown) [Example 207-1a],< 5
17,CNCC(O)COc1cccc(-c2nc(-c3c(C)noc3C)c(C)c(N3CC[C@@H](S(C)(=O)=O)C3)n2)c1 (stereo partly shown) [Example 111-1a],5 to 10
18,CNC[C@@H](O)COc1cccc(-c2nc(NC3CCN(C(=O)OC)C(C)C3)c(C)c(-c3c(C)noc3C)n2)c1 (stereo partly shown) [Example 32-3],< 5
19,CNCC(O)COc1cccc(-c2nc(NC3CCN(C(=O)N(C)C)CC3)c(C)c(-c3c(C)noc3C)n2)c1 (stereo not shown) [Example 244-1a],< 5
20,CNCC(O)COc1cccc(-c2nc(NC3C[C@@H](O)[C@H](O)C3)c(C)c(-c3c(C)noc3C)n2)c1 (stereo partly shown) [Example 280-1a],10 to 20
21,CNCC(O)COc1cccc(-c2nc(N[C@@H]3C[C@H]4CC[C@@H](C3)N4C(=O)OC)c(C)c(-c3c(C)noc3C)n2)c1 (stereo partly shown) [Example 265-1a],< 5
